According to US11179450B2, “Long chain antigen containing interepitope sequence that promotes antigen presentation to T cells” (MIE UNIVERSITY, priority 2013, dated 2021):

Assays:
[1] = test system: mouse fibrosarcoma cell line CMS5a; experiment: Mouse tumor growth test; assay type: in vivo, BALB/c mice; conditions: FIG. 2; single dose of vaccine with CpG oligo DNA before subcutaneous CMS5a implantation (prophylactic condition); Student's t test
From the text: Long chain peptide antigens MEN, all containing three types of mouse CD8+ T cell epitope sequences (MA p265 (Sequence No. 27), NY p81 (Sequence No. 29), and mERK2 9m (Sequence No. 28)), were synthesized. The interepitope sequences between the respective epitopes were respectively six consecutive tyrosines (Y6) (Sequence No. 1), six consecutive glycines (G6) (Sequence No. 2), or six consecutive prolines (P6) (Sequence No. 3). Each long chain peptide antigen was complexed with CHP and administered in a single dose as a vaccine to a mouse. As a control, a short chain peptide vaccine, constituted of just the mERK2 9m peptide, was mixed with Freund's incomplete adjuvant and administered. In the process of administration, CpG oligo DNA was coadministered as an adjuvant. On the day after administration, a mouse fibrosarcoma cell line CMS5a, expressing mERK2 as a tumor antigen and presenting the CD8+ T cell epitope mERK2 9m derived from the same antigen, was implanted subcutaneously and its growth was recorded over time.
A subcloned CMS5a cell line, obtained from a CMS5 cell line isolated from fibrosarcoma induced by administering 3-methylcholanthrene to a BALB/c mouse, expresses mutant ERK2 (mERK2) as a tumor antigen and presents a CD8^+ T cell epitope derived from the mERK2. The CMS5a cell line cultured in a T75 flask (Nunc) was detached using PBS containing 0.5% trypsin and collected in RPMI1640 medium containing 10% FBS. After centrifuging (400×g, 5 minutes, 4° C.), the supernatant was removed, and the cells were rinsed twice with RPMI1640 medium, thereafter suspended in RPMI1640 medium at a concentration of 1×10^6 cells/100 μL, and implanted subcutaneously in BALB/c mice at a dose of 100 μL/individual. The CHP/long chain peptide complexes and the adjuvant were administered 7 days before tumor implantation (prophylactic condition). After tumor implantation, the length and breadth of the tumor were measured and the product thereof was recorded as tumor size. The data in the tumor growth test were compared by Student's t test using Microsoft® Excel® (Microsoft Corporation).

[2] = test system: CD8+ T cells specific to MA p265, NY p81 and mERK2 9m; experiment: Specific CD8+ T cell induction by CHP/long chain peptide vaccines in mice, intracellular cytokine staining of spleen cells; assay type: in vivo, BALB/c mice
From the text: Long chain peptide antigens MEN, all containing three types of mouse CD8+ T cell epitope sequences (MA p265 (Sequence No. 27), NY p81 (Sequence No. 29), and mERK2 9m (Sequence No. 28)), were synthesized. The interepitope sequences between the respective epitopes were respectively six consecutive tyrosines (Y6) (Sequence No. 1), six consecutive glycines (G6) (Sequence No. 2), six consecutive prolines (P6) (Sequence No. 3), or six consecutive threonines (T6) (Sequence No. 4). Each long chain peptide antigen was complexed with cholesterol-modified pullulan (CHP), which is a type of delivery system, and administered as a vaccine to a mouse. In the process of administration, CpG oligo DNA was coadministered as an adjuvant. Spleen cells were collected one week after the final administration and the frequencies of CD8+ T cells specific to the respective epitope sequences were measured by an intracellular cytokine staining method.
Long chain peptide antigens NME, all containing three types of mouse CD8+ T cell epitope sequences (MA p265 (Sequence No. 27), NY p81 (Sequence No. 29), and mERK2 9m (Sequence No. 28)), were synthesized. The antigens differ from the MEN sequences shown in FIG. 1 in the order of the three types of epitopes. The interepitope sequences between the respective epitopes were respectively six consecutive tyrosines (Y6) (Sequence No. 5), six consecutive glycines (G6) (Sequence No. 6), or six consecutive prolines (P6) (Sequence No. 7). Vaccines containing the respective long chain peptide antigens were administered to mice in the same manner as in FIG. 1 and the frequencies of CD8+ T cells specific to the respective epitope sequences were measured by the intracellular cytokine staining method.
Long chain peptide antigens MEN, ENM, and NME, all containing three types of mouse CD8+ T cell epitope sequences (MA p265 (Sequence No. 27), NY p81 (Sequence No. 29), and mERK2 9m (Sequence No. 28)), were synthesized. MEN, ENM, and […] in the order of the three types of epitopes. The interepitope sequences between the respective epitopes were each six consecutive tyrosines (Y6) (Sequence Nos. 1, 5 and 8). Vaccines containing the respective long chain peptide antigens were administered to mice in the same manner as in FIG. 1 and the frequencies of CD8+ T cells specific to the respective epitope sequences were measured by the intracellular cytokine staining method.
Each long chain peptide was dissolved in dimethyl sulfoxide (DMSO) at a concentration of 10 mg/mL. CHP was dissolved in 6 M urea-containing phosphate buffered saline (PBS) at a concentration of 10 mg/mL 1 mL (10 mg) of the long chain peptide solution and 20 mL (200 mg) of the CHP solution were mixed and left to stand at room temperature overnight in a dark place. The liquid mixture was transferred into a dialysis membrane (molecular weight cutoff: 3,500; Thermo Fisher Scientific, Inc.) and dialyzed for 2 hours to overnight at 4° C. against 0.6 M urea-containing PBS of a volume ratio of not less than 100 times as the dialysis outer solution. Dialysis was then performed for 2 hours to overnight at 4° C. against 0.06 M urea-containing PBS of a volume ratio of not less than 100 times as the dialysis outer solution. Dialysis was performed again for 2 hours to overnight at 4° C. against PBS of a volume ratio of not less than 100 times as the dialysis outer solution. The dialyzed inner solution was collected, filtered through a filtration sterilization filter of 0.45 μm or 0.22 μm pore size, and thereafter the UV absorption at 280 nm was measured to determine the final concentration of the long chain peptide from its molecular extinction coefficient.
Each CHP/long chain peptide complex as the vaccine and the CpG oligo DNA as the adjuvant were administered at the same time to a mouse. Administration was performed by subcutaneous injection on the back of the mouse. […]

SNPARYEFLYYYYYYQYIHSANVLYYYYYYRGPESRLL (Long chain peptide antigen, containing three types of mouse CD8+ T cell epitope sequences (MA p265, NY p81, and mERK2 9m)) [MEN(Y6)]
growth of the tumor [1]: suppressed significantly (p<0.05)
induction of specific CD8+ T cells corresponding to all three types of epitopes ([2]; FIG. 1, MEN antigens complexed with CHP, subcutaneous, CpG oligo DNA adjuvant, spleen cells one week after final administration): clearly induced
induction of specific CD8+ T cells corresponding to all three types of epitopes ([2]; FIG. 4, MEN, ENM, NME epitope orders, interepitope sequence fixed at Y6): clearly induced
number of tyrosines of the interepitope sequence, judged in view of the results for the three types of epitopes ([2]; FIG. 6, comparing one to six tyrosines): best
number of tyrosines of the interepitope sequence, judged in view of the results for the three types of epitopes ([2]; FIG. 7, comparing five to ten tyrosines): best
